# Where two headings read alike, the source gives them in different places.
# Legend:
# TNFα = test: Cot Monocyte TNFα Cell Based Assay
# Human Cot = Human Cot (Homo sapiens (Human), UniProt P41279); test: High Throughput Cot Biochemical Assay
# [1] = Homo sapiens, Monocyte, read-out: EC50 TNF, LPS-stimulated human monocytes, TNFα
# [2] = IC50 HTRF, Cot HTRF (TR-FRET) biochemical assay
# [3] = read-out: EC50 TNF, LPS-stimulated human monocytes, TNFα
# [4] = read-out: IC50 HTRF, Cot HTRF (TR-FRET) biochemical assay
# Sequence of Human Cot (P41279 30-397): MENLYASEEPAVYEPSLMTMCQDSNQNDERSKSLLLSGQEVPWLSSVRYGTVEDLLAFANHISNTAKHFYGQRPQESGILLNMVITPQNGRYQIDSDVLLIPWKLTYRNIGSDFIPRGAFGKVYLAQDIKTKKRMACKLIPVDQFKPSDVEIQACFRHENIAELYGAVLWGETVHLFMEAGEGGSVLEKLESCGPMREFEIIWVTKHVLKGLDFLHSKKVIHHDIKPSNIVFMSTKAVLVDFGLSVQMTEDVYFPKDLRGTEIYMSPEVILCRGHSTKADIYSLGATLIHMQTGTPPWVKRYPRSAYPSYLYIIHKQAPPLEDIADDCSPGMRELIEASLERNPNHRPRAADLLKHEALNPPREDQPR
EC50 (TNFα; [1]) [nM],IC50 (Human Cot; [2]) [nM],Structure (SMILES),other results
150,6,"[2H][C@](Nc1cc(Cl)c2ncc(C#N)c(N[C@H](CC)c3ccccc3)c2c1)(c1ccc(F)nc1)c1cn(C(C)(C)C)nn1 [Example 118, 6-(((S)-(1-(tert-butyl)-1H-1,2,3-triazol-4-yl)(6-fluoropyridin-3-yl)methyl-d)amino)-8-chloro-4-(((R)-1-phenylpropyl)amino)quinoline-3-carbonitrile]",
,,"Cn1ccc2c([C@H](Nc3cc(C#N)c4ncc(C#N)c(NCC(C)(C)C(F)(F)F)c4c3)c3cn(C4(C(F)(F)F)CC4)nn3)cccc2c1=O [Example 886, (S)-6-(((2-methyl-1-oxo-1,2-dihydroisoquinolin-5-yl)(1-(1-(trifluoromethyl)-cyclopropyl)-1H-1,2,3-triazol-4-yl)methyl)-amino)-4-((3,3,3-trifluoro-2,2-dimethylpropyl)-amino)quinoline-3,8-dicarbonitrile]","EC50 (TNFα; Homo sapiens, Monocyte, read-out: EC50 TNF, LPS-stimulated human monocytes, TNFα TR-FRET): 30 nM; IC50 (Human Cot; IC50 HTRF, Cot HTRF (TR-FRET KinEASE) biochemical assay, 400 μM ATP): 3 nM"
198,6,"Cn1nccc1[C@H](Nc1cc(Cl)c2ncc(C#N)c(NCC(C)(C)C)c2c1)c1cn(C2(C(F)F)CC2)nn1 [Example 665, (S)-8-chloro-6-(((1-(1-(difluoromethyl)cyclopropyl)-1H-1,2,3-triazol-4-yl)(1-methyl-1H-pyrazol-5-yl)methyl)amino)-4-(neopentylamino)quinoline-3-carbonitrile]",
,,CC(C)(C)N1CCC(n2cc([C@@H](Nc3cc(Cl)c4ncc(C#N)c(Nc5cccc(Cl)c5F)c4c3)c3cccnc3)nn2)CC1 [Example 286],EC50 (TNFα; [3]): 121 nM; IC50 (Human Cot; [4]): 4 nM
301,22,"Cc1nc([C@H](Nc2cc(C#N)c3ncc(C#N)c(NCC(C)(C)C)c3c2)c2cn(C3(C(F)F)CC3)nn2)c(C)o1 [Example 674, (S)-6-(((1-(1-(difluoromethyl)-cyclopropyl)-1H-1,2,3-triazol-4-yl)(2,5-dimethyloxazol-4-yl)methyl)amino)-4-(neopentylamino)quinoline-3,8-dicarbonitrile]",
,,"Cc1nc(F)ccc1[C@H](Nc1cc(Cl)c2ncc(C#N)c(NCC(C)(C)C)c2c1)c1cn([C@@H]2C[C@@H]2F)nn1 [Example 579, 8-chloro-6-(((S)-(6-fluoro-2-methylpyridin-3-yl)(1-((lR,2S)-2-fluorocyclopropyl)-1H-1,2,3-triazol-4-yl)methyl)amino)-4-(neopentylamino)quinoline-3-carbonitrile]",EC50 (TNFα; [3]): 24 nM; IC50 (Human Cot; [4]): 2 nM
348,5,"[2H]C(Nc1cc(Cl)c2ncc(C#N)c(N[C@H](CC)c3ccccc3)c2c1)(c1cn(C2CC2)nn1)c1scnc1C (stereo partly drawn) [Example 101, 8-chloro-6-(((1-cyclopropyl-1H-1,2,3-triazol-4-yl)(4-methylthiazol-5-yl)methyl-d)amino)-4-(((R)-1-phenylpropyl)amino)quinoline-3-carbonitrile]",
5600,56,"N#Cc1cnc2c(Cl)cc(N[C@@H](c3cccnc3)c3cn(C4COC4)nn3)cc2c1NC1CCOCC1 [Example 201, (S)-8-chloro-6-(((1-(oxetan-3-yl)-1H-1,2,3-triazol-4-yl)(pyridin-3-yl)methyl)amino)-4-((tetrahydro-2H-pyran-4-yl)amino)quinoline-3-carbonitrile]",
24,2,"Cn1ccc2c([C@H](Nc3cc(Cl)c4ncc(C#N)c(NCC(C)(C)C)c4c3)c3cn(C4(C)CC4)nn3)cccc2c1=O [Example 776, (S)-8-chloro-6-(((2-methyl-1-oxo-1,2-dihydroisoquinolin-5-yl)(1-(1-methylcyclopropyl)-1H-1,2,3-triazol-4-yl)methyl)amino)-4-(neopentylamino)quinoline-3-carbonitrile]",
,,Cc1nc(Cl)ccc1[C@H](Nc1cc(Cl)c2ncc(C#N)c(Nc3ccc(F)c(Cl)c3)c2c1)c1cn(C2CCN(C(C)(C)C)CC2)nn1 [Example 318],EC50 (TNFα; [3]): 271 nM; IC50 (Human Cot; [4]): 8 nM
31,2,"CC[C@@H](Nc1c(C#N)cnc2c(Cl)cc(N[C@@H](c3cccnc3)c3cn(CCCN4CCCC4)nn3)cc12)c1ccccc1 [Example 176, 8-chloro-4-(((R)-1-phenylpropyl)amino)-6-(((S)-pyridin-3-yl(1-(3-(pyrrolidin-1-yl)propyl)-1H-1,2,3-triazol-4-yl)methyl)amino)quinoline-3-carbonitrile]",
1000,450,"CC(C)(C)CNc1c(C#N)cnc2c(Cl)cc(N[C@H](c3cn(C4(C(F)(F)F)CC4)nn3)c3cncc4ccccc34)cc12 [Example 628, (S)-8-chloro-6-((isoquinolin-4-yl(1-(1-(trifluoromethyl)cyclopropyl)-1H-1,2,3-triazol-4-yl)methyl)amino)-4-(neopentylamino)quinoline-3-carbonitrile]",
356,20,"CC(C)(C)CNc1c(C#N)cnc2c(Cl)cc(N[C@H](c3cn(C4CC4)nn3)c3cccc4cccnc34)cc12 [Example 450, (S)-8-chloro-6-(((1-cyclopropyl-1H-1,2,3-triazol-4-yl)(quinolin-8-yl)methyl)amino)-4-(neopentylamino)quinoline-3-carbonitrile]",
127,5,"CC(C)n1cc([C@@H](Nc2cc(Cl)c3ncc(C#N)c(Nc4ccc(F)c(Cl)c4)c3c2)c2cccn3nccc23)nn1 [Example 157, (S)-8-chloro-4-((3-chloro-4-fluorophenyl)amino)-6-(((1-isopropyl-1H-1,2,3-triazol-4-yl)(pyrazolo[1,5-a]pyridin-4-yl)methyl)amino)-quinoline-3-carbonitrile]",
> 10000,4450,"Cc1ncccc1[C@H](Nc1cc(Cl)c2ncc(C#N)c(N[C@@H](CO)c3ccccc3)c2c1)c1c[nH]nn1 [Example 219, 8-chloro-4-(((R)-2-hydroxy-1-phenylethyl)amino)-6-(((S)-(2-methylpyridin-3-yl)(1H-1,2,3-triazol-4-yl)methyl)amino)quinoline-3-carbonitrile]",
,,Cc1ncccc1[C@H](Nc1cc(Cl)c2ncc(C#N)c(Nc3ccc(F)c(Cl)c3)c2c1)c1cn(C2CCN(C(C)(C)C)CC2)nn1 [Example 283],EC50 (TNFα; [3]): 50 nM; IC50 (Human Cot; [4]): 3 nM
125,2,"Cc1ncccc1[C@H](Nc1cc(Cl)c2ncc(C#N)c(Nc3cccc(Cl)c3F)c2c1)c1cn(C(C)C)nn1 [Example 245, (S)-8-chloro-4-((3-chloro-2-fluorophenyl)amino)-6-(((1-isopropyl-1H-1,2,3-triazol-4-yl)(2-methylpyridin-3-yl)methyl)amino)quinoline-3-carbonitrile]",
168,2,"CCN1CCC(n2cc([C@@H](Nc3cc(Cl)c4ncc(C#N)c(Nc5ccc(F)c(Cl)c5)c4c3)c3cncs3)nn2)CC1 [Example 378, (R)-8-chloro-4-((3-chloro-4-fluoro-phenyl)amino)-6-(((1-(1-ethylpiperidin-4-yl)-1H-1,2,3-triazol-4-yl)(thiazol-5-yl)methyl)amino)quinoline-3-carbonitrile]",
54,2,"Cc1nc(F)ccc1[C@H](Nc1cc(Cl)c2ncc(C#N)c(NCC(C)(C)C)c2c1)c1cn(C2CC2)nn1 [Example 716, (S)-8-chloro-6-(((1-cyclopropyl-1H-1,2,3-triazol-4-yl)(6-fluoro-2-methylpyridin-3-yl)methyl)amino)-4-(neopentylamino)quinoline-3-carbonitrile]",
